Assay results taken from patent publication US20160151337A1, “ANNELATED PYRROLES AND THEIR USE AS CRAC INHIBITORS” (Grünenthal GmbH, priority 2013, published 2016).

How the values were obtained:
[1] = target: T1, CRAC channel (Homo sapiens, UniProt Q96D31); experiment: HEK Calcium Influx Assay (FLIPR), inhibition of store-operated Ca2+ entry after thapsigargin store depletion; type: cell-based; settings: 10 μM compound, HEK293 cells, read-out: % inhib. [@ 10 μM] FLIPR
T1 construct: endogenous in cells; host or cells: HEK293 (ECACC), untransfected
Method: The effect of compounds of the invention on intracellular [Ca^2+] was tested in the HEK293 cell line (ECACC).
HEK293 cells were cultured in DMEM/F12/Glutamax (Gibco) containing 10% FCS (Gibco), and maintained at 37° C., 5% CO2. Cell were split twice a week [3*10^6 (Mon-Thu) and 1*10^6 (Thu-Mon) cells/50 ml medium in 1-175 ZK culture flasks, respectively]. Twenty four hours pre-experiment, cells were seeded on 96 well plates (Poly-D-Lysine 96 well Black/Clear Plate, BD Biocoat REF 356640) at a density of 40,000 cells/well in DMEM/F12 (Gibco) containing 10% FCS (Gibco), and maintained at 37° C., 5% CO2.
Prior to store-depletion, cell culture medium was removed and cells were loaded with the Calcium-sensitive fluorescent dye comprised within the Calcium-4-assay kit (Molecular Devices) in nominally Ca^2+-free HBS buffer (140 mM NaCl, 4 mM KCl, 0.2 mM MgCl2, 11 mM D-glucose, and 10 mM HEPES, pH 7.4) according to manufacturer's instruction for 60 min at 37° C., 5% CO2.
Passive depletion of intracellular Ca^2+-stores was then triggered by employing the SERCA inhibitor thapsigargin (2 μM final) for 10 min in the dark (RT). To prevent immediate Ca^2+-entry via the activated store-operated channels (SOCs), cells were maintained in Ca^2+-free HBS buffer comprising 100 μM EGTA during store-depletion.
Intracellular changes in [Ca^2+] were subsequently monitored with the FLIPR device (Molecular Devices). In brief, baseline imaging post-store depletion was allowed for 1 min before adjusting the extracellular buffer to 3 mM CaCl2. Increases in intracellular [Ca^2+] due to pre-activated SOC channels were monitored for 15 min until intracellular Ca^2+ levels had declined into a steady-state. Finally, compounds were administered, and Ca^2+ signals were recorded for additional 10 min.
Inhibition of endogenous SOC in HEK293 cells was quantified employing the average Ca^2+ signal measured from 9.5-10 min post-administration. Zero percent inhibition (MAX) was defined as the Ca^2+ signal recorded from wells to which DMSO-only had been added instead of compound. Hundred percent inhibition (MIN) was defined as the signal obtained from wells in which cells haven't been treated with TG prior to Ca^2+ addition and to which DMSO-only had been added instead of compound. For routine IC50 determinations of compounds, 8 concentrations of a serial dilution (1:3.16) were tested, starting off from 10 μM. Reliable IC50's could consequently be determined only, if they were at least sub 2.5-3 μM.

[2] = test system: Interleukin-2 (IL-2) production/release in Jurkat T cells; experiment: Jurkat IL-2 Production Assay (PHA-stimulated, IL-2 AlphaLisa); type: cell-based; settings: Homo sapiens, PHA 15 μg/ml, 22 h, inhibition of IL-2 production
Method: The effect of compounds of the invention on Interleukin-2 (IL-2) production/release was tested in the Jurkat T cell line (ECACC) clone E6-1.
Jurkat T cells were cultured in DMEM/F12/Glutamax (Gibco) containing 10% FCS (Gibco), and maintained at 37° C., 5% CO2. Cells were split twice a week [5*10^6 (Mon-Thu) and 1*10^7 (Thu-Mon) cells/50 ml medium in 1-175 ZK culture flasks, respectively].
Prior to experiment, cells were seeded on 96 well plates (Cellstar 96 Well; Cat No. 655180, Greiner bio-one) at a density of 5*10^5 cells/well in DMEM/F12/Glutamax (Gibco) containing 10% FCS (Gibco), and incubated for 60 min at 37° C., 5% CO2. Subsequently, compounds were added and cells were allowed to incubate for 30 min at 37° C., 5% CO2. Cells were then stimulated with 15 μg/ml Phyto-hemagglutinin (PHA; Sigma) for 22 hours at 37° C., 5% CO2.
Before sampling of the supernatants, cells were spun down (200*g/5 min/RT). The amount of IL-2 released into the supernatant was quantified with the human IL-2 AlphaLisa kit (Perkin Elmer) according to manufacturer's instructions. Luminescence proximity measurements were carried out in the Synergy H4 reader (BioTek) employing the fluorescence setting of the reader (ex: 680/30 nm; em: 620/40 nm).
Inhibition of IL-2 production/release in/from Jurkat T cells was quantified as follows: Zero percent inhibition (MAX) was defined as the [IL-2] determined in supernatants derived from cells to which PHA & DMSO-only had been added instead of compound. Hundred percent inhibition (MIN) was defined as the [IL-2] determined in supernatants derived from cells that had been pre-treated with 1 μM CyclosporineA (Sigma) before the addition of 15 μg/ml PHA.
For routine IC50 determinations of compounds, 8 concentrations of a serial dilution (1:3.16) were tested, starting off from 10 μM.

T1 sequence (Q96D31 whole entry): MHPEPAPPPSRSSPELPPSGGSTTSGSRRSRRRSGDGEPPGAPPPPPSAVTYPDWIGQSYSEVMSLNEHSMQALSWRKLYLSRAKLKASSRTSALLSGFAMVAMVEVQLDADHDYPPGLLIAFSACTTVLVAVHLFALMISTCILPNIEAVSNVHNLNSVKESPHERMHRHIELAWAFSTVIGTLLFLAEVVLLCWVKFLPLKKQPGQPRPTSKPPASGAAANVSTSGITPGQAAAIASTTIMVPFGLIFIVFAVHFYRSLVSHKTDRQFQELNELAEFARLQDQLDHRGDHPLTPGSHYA

SMILES | inhibition at 10 µM [1] | IC50 [2]
Cn1nc(C2CC2)cc1N1CCc2[nH]c(-c3c(F)cccc3F)cc2C1 [Example 106, 5-(5-Cyclopropyl-2-methyl-2H-pyrazol-3-yl)-2-(2,6-difluoro-phenyl)-4,5,6,7-tetrahydro-1H-pyrrolo[3,2-c]pyridine] | > 70% | 0.5 to 1 µM
COc1cc2c(cc1N1CCc3[nH]c(C4CCCCC4)cc3C1)CCS2(=O)=O [Example 103, 5-(2-Cyclohexyl-4,5,6,7-tetrahydro-1H-pyrrolo[3,2-c]pyridin-5-yl)-6-methoxy-2,3-dihydro-benzo[b]thiophene 1,1-dioxide] | < 50% | < 0.5 µM
Cc1cc(S(C)(=O)=O)ncc1N1CCc2[nH]c(-c3cncc(F)c3C)cc2C1 [Example 96, 2-(5-Fluoro-4-methyl-pyridin-3-yl)-5-(4-methyl-6-methylsulfonyl-pyridin-3-yl)-4,5,6,7-tetrahydro-1H-pyrrolo[3,2-c]pyridine] | > 70% | 0.5 to 1 µM
Cc1cc(C#N)cnc1N1CCc2[nH]c(C3CCCCC3)cc2C1 [Example 102, 6-(2-Cyclohexyl-4,5,6,7-tetrahydro-1H-pyrrolo[3,2-c]pyridin-5-yl)-5-methyl-nicotinonitrile] | > 70% | 0.5 to 1 µM
Cc1nc(-c2cccnc2)sc1N1CCc2[nH]c(-c3c(F)cccc3F)cc2C1 [Example 18, 5-[2-(2,6-Difluoro-phenyl)-4,5,6,7-tetrahydro-1H-pyrrolo[3,2-c]pyridin-5-yl]-4-methyl-2-pyridin-3-yl-thiazole] | > 70% | < 0.5 µM
Cc1cc(S(=O)(=O)C(F)(F)F)ccc1N1CCc2[nH]c(-c3c(F)cccc3F)cc2C1 [Example 86, 2-(2,6-Difluoro-phenyl)-5-[2-methyl-4-(trifluoromethylsulfonyl)-phenyl]-4,5,6,7-tetrahydro-1H-pyrrolo[3,2-c]pyridine] | < 50% | 1 to 5 µM
Fc1cccc(F)c1-c1cc2c([nH]1)CCN(c1cnc(C(F)(F)F)cc1C1CC1)C2 [Example 113, 5-[4-Cyclopropyl-6-(trifluoromethyl)-pyridin-3-yl]-2-(2,6-difluoro-phenyl)-4,5,6,7-tetrahydro-1H-pyrrolo[3,2-c]pyridine] | < 50% | < 0.5 µM
Cc1cc(C#N)cnc1N1CCc2[nH]c(-c3c(F)cccc3F)cc2C1 [Example 68, 6-[2-(2,6-Difluoro-phenyl)-4,5,6,7-tetrahydro-1H-pyrrolo[3,2-c]pyridin-5-yl]-5-methyl-nicotinonitrile] | > 70% | < 0.5 µM
CCn1nc(C2(C(F)(F)F)CC2)cc1N1CCc2[nH]c(-c3c(F)cccc3F)cc2C1 [Example 124, 2-(2,6-Difluoro-phenyl)-5-[2-ethyl-5-[1-(trifluoromethyl)-cyclopropyl]-2H-pyrazol-3-yl]-4,5,6,7-tetrahydro-1H-pyrrolo[3,2-c]pyridine] | < 50% | < 0.5 µM
Cc1cc(C#N)ccc1N1CCc2[nH]c(-c3c(F)cccc3F)cc2C1 [Example 12, 4-[2-(2,6-Difluoro-phenyl)-4,5,6,7-tetrahydro-1H-pyrrolo[3,2-c]pyridin-5-yl]-3-methyl-benzonitrile] | 50 to 70% | < 0.5 µM
Cc1cc(S(=O)(=O)N(C)C)ccc1N1CCc2[nH]c(-c3c(F)cccc3F)cc2C1 [Example 14, 4-[2-(2,6-Difluoro-phenyl)-4,5,6,7-tetrahydro-1H-pyrrolo[3,2-c]pyridin-5-yl]-N,N,3-trimethyl-benzenesulfonic acid amide] | < 50% | < 0.5 µM
Cc1cc(S(C)(=O)=O)ncc1N1CCc2[nH]c(C3CCC(F)(F)CC3)cc2C1 [Example 122, 2-(4,4-Difluoro-cyclohexyl)-5-(4-methyl-6-methylsulfonyl-pyridin-3-yl)-4,5,6,7-tetrahydro-1H-pyrrolo[3,2-c]pyridine] | 50 to 70% | 1 to 5 µM
Cn1nc(C2(C(F)(F)F)CC2)cc1N1CCc2[nH]c(-c3c(F)cccc3F)cc2C1 [Example 123, 2-(2,6-Difluoro-phenyl)-5-[2-methyl-5-[1-(trifluoromethyl)-cyclopropyl]-2H-pyrazol-3-yl]-4,5,6,7-tetrahydro-1H-pyrrolo[3,2-c]pyridine] | > 70% | 0.5 to 1 µM
CCOc1cc(C(F)(F)F)c(N2CCc3[nH]c(-c4c(F)cccc4F)cc3C2)cn1 [Example 100, 2-(2,6-Difluoro-phenyl)-5-[6-ethoxy-4-(trifluoromethyl)-pyridin-3-yl]-4,5,6,7-tetrahydro-1H-pyrrolo[3,2-c]pyridine] | < 50% | 1 to 5 µM
Cc1cc(C(F)(F)F)ncc1N1CCc2[nH]c(C3CCCCC3)cc2C1 [Example 97, 2-Cyclohexyl-5-[4-methyl-6-(trifluoromethyl)-pyridin-3-yl]-4,5,6,7-tetrahydro-1H-pyrrolo[3,2-c]pyridine] | 50 to 70% | 1 to 5 µM
Cc1cc2c(cc1N1CCc3[nH]c(-c4c(F)cccc4F)cc3C1)OC(F)(F)O2 [Example 20, 5-(2,2-Difluoro-6-methyl-1,3-benzodioxol-5-yl)-2-(2,6-difluoro-phenyl)-4,5,6,7-tetrahydro-1H-pyrrolo[3,2-c]pyridine] | < 50% | 1 to 5 µM
CCOc1cc(OC)c(N2CCc3[nH]c(-c4c(F)cccc4F)cc3C2)cn1 [Example 143, 2-(2,6-Difluoro-phenyl)-5-(6-ethoxy-4-methoxy-pyridin-3-yl)-4,5,6,7-tetrahydro-1H-pyrrolo[3,2-c]pyridine] | < 50% | 1 to 5 µM
Cc1ccncc1N1CCc2[nH]c(-c3c(F)cccc3F)cc2C1 [Example 10, 2-(2,6-Difluoro-phenyl)-5-(4-methyl-pyridin-3-yl)-4,5,6,7-tetrahydro-1H-pyrrolo[3,2-c]pyridine] | > 70% | 1 to 5 µM
Cc1cc(S(C)(=O)=O)ncc1N1CCc2[nH]c(-c3ccccc3F)cc2C1 [Example 79, 2-(2-Fluorophenyl)-5-(4-methyl-6-methylsulfonyl-pyridin-3-yl)-4,5,6,7-tetrahydro-1H-pyrrolo[3,2-c]pyridine] | > 70% | 0.5 to 1 µM
CNS(=O)(=O)c1ccc(N2CCc3[nH]c(-c4cnc(C)cc4C)cc3C2)c(C)c1 [Example 127, 4-[2-(4,6-Dimethyl-pyridin-3-yl)-4,5,6,7-tetrahydro-1H-pyrrolo[3,2-c]pyridin-5-yl]-N,3-dimethyl-benzenesulfonic acid amide] | > 70% | 1 to 5 µM
COc1cc(S(C)(=O)=O)ccc1N1CCc2[nH]c(-c3c(F)cccc3F)cc2C1 [Example 28, 2-(2,6-Difluoro-phenyl)-5-(2-methoxy-4-methylsulfonyl-phenyl)-4,5,6,7-tetrahydro-1H-pyrrolo[3,2-c]pyridine] | > 70% | 0.5 to 1 µM
